Experimental data taken from patent publication US11415513B2, “Method for determining the degree of sensitivity of a strain of fungus to an antifungal agent” (UNIVERSITE GRENOBLE ALPES, priority 2015, dated 2022).
Converted amounts (≈) assume the structure as drawn. Read-outs that look alike come from different tables or passages of the source.

Tests used:
[1] = system: strain Tg5 of C. glabrata; assay: Sensitivity test by HCA microscopy (chitin level, Calcofluor White); type: cell-based, Candida glabrata; settings: 6.5 h at 35° C., RPMI medium; for decrease in the chitin level in the wall of the cells: vs cells in the absence of antifungal agent, concentration gradient of Table 1
Description: (§1) The strains of Candida were incubated beforehand at 30° C. overnight in a yeast extract medium—peptone dextrose (YPD) (1% bacto peptone, 0.5% yeast extract, 2% glucose, 1.5% agar).
(§2) Yeast colonies were then removed from YPD medium plates and suspended in a 0.9% NaCl saline solution, in which the cell concentration was estimated by optical microscopy using Kova counting slides.
(§3) A dilution was performed to obtain 15 ml of an inoculum at 3×10^6 CFU/ml, in a synthetic complete (SC) medium at pH 7 (2% glucose, 0.5% ammonium sulfate, 0.17% nitrogen-containing yeast base, 0.2% synthetic complete mixture, and 10% HEPES 1.5M pH 7.2) for C. albicans, C. parapsilosis, C. tropicalis and C. krusei, and in a solution of RPMI 1640 pH 7.3 (10% HEPES 1M pH 7.2) for C. glabrata, so as to reduce the formation of septa and clusters.
(§4) 1 ml of inoculum was then added to 2 ml of antifungal solution prepared in an SC or RPMI medium depending on the species of fungus, so as to obtain a final concentration of yeast of 10^6 CFU/ml and the desired concentration of antifungal agent according to table 1.
(§5) After homogenisation, the cultures were placed at 30° C. at 200 rpm, with the exception of cultures of C. glabrata, which were placed at 35° C. at 200 rpm, and incubated for a period of 6.5 h or 24 h.
(§6) After incubation, 100 μl of the culture of fungi obtained above were transferred in triplicate to 96-well plates, and 2.5 μl of Calcofluor White (CFW) were added to each well so as to mark the chitin of the cell walls of the yeasts.
A step of acquiring images by automated fluorescence microscopy (ScanR screening station, Olympus), using a 40× lens and a CFW filter, made it possible to obtain 30 images per well so as to capture enough cells to provide statistically significant data. These images were analysed by software (ScanR analysis software, Olympus). Firstly, the background noise was processed so as to improve the contrast between the fluorescence of the yeasts and background noise. A pixel threshold was then defined. Segmentation of the fluorescent elements present in each of the acquired images was then performed using an algorithm predefined in the software, making it possible to determine the limit of each element on the basis of the fluorescence intensity of said element. […]
Each element then corresponding to a yeast, it was thus possible, on the basis of these elements predefined beforehand, to define the fluorescence intensity for each of the yeasts, this intensity being directly correlated with the chitin content of their wall. […]
(§7) The chitin level in the cell wall of the yeasts was then measured by […] analysis (HCA) microscopy, as described in paragraph II of the Examples section, in triplicate for each condition of concentration of fluconazole and without fluconazole. […]

[2] = system: strain Tg5 of C. glabrata; assay: Etest method (MIC); type: cell-based, Candida glabrata; settings: for MIC: Nakaseomyces glabratus, read-out: MIC (Etest method)
Description: The Etest® method is a commercial test for determining the sensitivity of a strain, most frequently used routinely in clinical mycology laboratories.
The Etest® tests were performed according to the manufacturer's instructions. After distributing a standardised Mac Farland 0.5 inoculum (equivalent of […]) over plates of RPMI medium, said plates were incubated for 24 h at 35° C., with the exception of C. glabrata in which case the incubation was extended to 48 h so as to be able to determine the minimum inhibitory concentration (MIC).
The results of the MICs obtained were interpreted in accordance with the tables of the CLSI (Clinical and Laboratory Standards Institute) and/or of EUCAST (European Committee on Antimicrobial Susceptibility Testing) (Arendrup M C, Cuenca-Estrella M, Lass-Flörl C, Hope W W (2014) Breakpoints for antifungal agents: an update from EUCAST focussing on echinocandins against Candida spp and triazoles against Aspergillus spp. Drug Resist Updat 16(6):81-95. doi:10.1016/j.drup.2014.01.001) (cf. Table 2 taken from Maubon D, Garnaud C, Calandra T, et al. (2014) Resistance of Candida spp. to antifungal drugs in the ICU: where are we now? Intensive Care Med. doi: 10.1007/s00134-014-3404-7) which list the clinical thresholds (CBPs) for the most common species of yeast of the genus Candida as a function of different antifungal agents, or according to the table of epidemiological thresholds (ECVs).

[3] = system: strain GRE32 of C. krusei; assay: Sensitivity test by HCA microscopy (chitin level, Calcofluor White; cell count); type: cell-based, Candida krusei
Description: as §1, §2, §3, §4, §5, §6
A step of acquiring images by automated fluorescence microscopy (ScanR screening station, Olympus), using a 40× lens and a CFW filter, made it possible to obtain 30 images per well so as to capture enough cells to provide statistically significant data. These images were analysed by software (ScanR analysis software, Olympus). Firstly, the background noise was processed so as to improve the contrast between the fluorescence of the yeasts and background noise. A pixel threshold was then defined. Segmentation of the fluorescent elements present in each of the acquired images was then performed using an algorithm predefined in the software, making it possible to determine the limit of each element on the basis of the fluorescence intensity of said element. A size parameter was then applied to select the yeasts and eliminate the aggregates and the fluorescent debris.
Each element then corresponding to a yeast, it was thus possible, on the basis of these elements predefined beforehand, to define the fluorescence intensity for each of the yeasts, this intensity being directly correlated with the chitin content of their wall.
On the basis of said defined elements, it was also possible to automatically count the yeasts,
The strain GRE32 of C. krusei was cultivated as described in paragraph I of the Examples section so as to obtain an inoculum at 3×10^6 CFU/ml in 15 ml of SC medium.
2 ml of fluconazole solution prepared in the SC medium were then added to 1 ml of this inoculum so as to obtain a final concentration of yeast of 10^6 CFU/ml and of 128 μg/ml in fluconazole. […]
as §7

[4] = RPMI medium plates, 35° C., incubation extended to 48 h for C. glabrata

Row | Compound | phenotype of the strain with respect to the antifungal agent (HCA) [1] | decrease in the chitin level in the wall of the cells [1] | MIC [2, 4] [µg/mL] | phenotype by Etest MIC, interpretation by the EUCAST and/or CLSI tables [2, 4] | phenotype of the strain with respect to the antifungal agent (HCA) ([3]; 6.5 h at 30° C., SC medium) | decrease in the chitin level in the wall of the cells ([3]; vs cells in the absence of antifungal agent, 6.5 h at 30° C., SC medium, concentration gradient of Table 1) | MIC ([2]; 48 h) [µg/mL] | phenotype of the strain with respect to the antifungal agent (HCA) ([3]; 24 h at 30° C.) | decrease of the number of cells ([3]; vs cells in the absence of antifungal agent, 24 h at 30° C.) | increase in the chitin level in the wall of the cells ([3]; vs cells in the absence of antifungal agent, 24 h at 30° C., inoculum in SC medium, antifungal solution in RPMI medium, concentration gradient of Table 1)
1 | OC(Cn1cncn1)(Cn1cncn1)c1ccc(F)cc1F [fluconazole] | resistant (an increase in the chitin level having a value less than 10% or a decrease in the chitin level of less than 20% or an unchanged chitin level) | less than 20% | > 256 | resistant | resistant (an increase in the chitin level having a value less than 10% or a decrease in the chitin level of less than 20% or an unchanged chitin level) | less than 20% |  |  |  | 
2 | C[C@@H](c1ncncc1F)[C@](O)(Cn1cncn1)c1ccc(F)cc1F [voriconazole] | resistant (an increase in the chitin level having a value less than 10% or a decrease in the chitin level of less than 20% or an unchanged chitin level) | less than 20% |  | resistant |  |  | 8 (≈ 22.9 µM) | intermediate (an increase in the chitin level having a value of from 10% to a value less than 20%) | less than 0.3 log | greater than or equal to 20%
